Measured values: patent US5670538A, “Use of prodelphinidins for obtaining medicaments intended for the treatment of arthrosis” (Laboratoires Dolisos, priority 1992, dated 1997)
Like-named read-outs stand apart in the source and are kept apart here.

Tests used:
[1] = Production of OH° hydroxyl radicals (gamma irradiation, KMB substrate, ethylene by gas chromatography); format: biochemical; conditions: for % inhibition of the production of hydroxyl radicals: Substrate: KMB, relative to the controls
Description: 8. Production of OH° hydroxyl radicals
The products are dissolved in 10 ml flasks at the required concentration in phosphate buffer: 6.6.10^-2 M, pH 7.4 in the presence of alpha keto methiolbutyric acid (10^-3 M: KMB). After the flasks have been hermetically sealed, the samples are irradiated with gamma rays provided by a ^137 Cs source.
The OH° radicals produced by the gamma radiation react with the KMB to produce the ethylene detected by a gas chromatograph. The height of the ethylene peak is proportional to the quantity of free radicals formed in the medium (Weis et al., 1978).

[2] = system: human articular chondrocytes; assay: Radioimmunoassay of cartilaginous proteoglycans (PG) produced in tridimensional culture of human chondrocytes; format: cell-based; conditions: for PG in the clusters over 12 days: 0-12 days
Description: The model used for testing the proanthocyanidols, namely the tridimensional culture of human chondrocytes allows chondrorepair to be quantified by the production of matrix substances: type II collagen, proteoglycans, and chondroresorption by the reduction in the levels of prostaglandin E2 and of OH° and O°2 type free radicals produced.
1. Tridimensional culture of human chondrocytes
The technique used has been described in detail (Bassleer et al., 1986).
Briefly, human articular chondrocytes are cultivated in DMEM (Dulbecco's Modification of Eagle's Medium--ICN--Gand, Belgium) with either Ultroser G 1% (GIBCO, Gand, Belgium) or 10% of foetal calf serum (ICN--Gand--Belgium), and 50 μg of ascorbic acid/ml added to it. The cartilage originates from the apparently normal zone of heads of human femur suffering from arthrosis, immediately after an operation carried out to insert a total hip prosthesis; it can also originate from the head of a healthy femur, but which has undergone a traumatism and has had to be replaced. This cartilage is then digested by clostridial collagenase 1 mg/ml (Boehringer-Mannheim, Germany) in a buffer (NaCl 120 mM, CaCl2 1 mM, KCl 5 mM, KH2 PO4 1 mM, NaHCO3 25 mM, glucose 2 mM and Hepes 30 mM, pH 7.4) for 24 hours. After 6 successive washings and centrifugations, the chondrocytes, isolated from their matrix, are cultured in flasks (10^6 cells/2 ml of culture medium) placed on a gyrator (10 rpm). The cultures are kept at 37° C. in an atmosphere of air 95%-CO2 5% (Bassleer et al., 1986). Cultivated under these conditions, after 4 to 5 days the chondrocytes form a tridimensional cluster in each flask. These clusters, which at first have a flocculent appearance, then tend to condense during the culture. After two weeks, their diameter is, in general, from 1 to 2 mm.
The fresh weight of the clusters increases with the duration of the culture, above all during the few first days.
2. Radioimmunoassay of cartilaginous proteoglycans (PG)
The PGs are measured with a radioimmunoassay (RIA) which is specific and sensitive to human cartilaginous PGs (Gysen et al. 1984). The PGs were extracted from human cartilage, according to the methods described by Roughley et al., (1981) and by Bayliss and Venn (1980). The antiserum against the cartilaginous PGs was obtained from the rabbit according to the technique of Vaitukaitis et al. (1971). The radioimmunoassay is carried out in a 0.4 ml volume consisting of 0.1 ml of tracer solution (15000 to 20000 cpm ^125 I-PG, labelled by the chloramine T method (Greenwood, 1973). 0.1 ml of anti-PG antiserum diluted to 1/5000 in phosphate-buffered saline (PBS-50 mM PO4, 150 mM NaCl ), containing BSA (5 g/l bovine serum albumin and 6.7 mM sodium azide) (incubation buffer) and 0.2 ml of several dilutions of the culture medium or of the cluster extract or also of the antigen (0.5 -500 ng/tube).
After four days at 4° C., the free PGs* (radioactive PGs) are separated from the PG*-antibody complexes by double precipitation (Franchimont et al., 1983).
The sensitivity of the assay is 0.6 ng/tube. The accuracy of measurement is of the order of 4%. The coefficients of the intra- and inter assay variation are less than 10% and 20% respectively.
The antibodies are directed against the antigenic determinants of the central protein of PG. There is a complete crossed reaction with human PGs of cartilage from the ribs, vertebral disks and trachea, even with PGs extracted from veins or arteries. There is no cross reaction with glycosaminoglycans or with PGs extracted from foetal tissues or the small PGs from bone.
The PGs are measured directly in the culture medium. As for the chondrocyte clusters, they are washed 3 times in a phosphate-buffered saline (PBS-50 mM PO4, 150 mM NaCl pH 7.4) containing protease inhibitors (Oegema et al., 1975:100 mM 6-aminohexanoic acid, 10 mM EDTA, 50 mM benzamidine hydrochloride, 5.10^-8 M trypsin inhibitor, 6.7 mM sodium azide and 200 U/ml superoxide dismutase). […]

SMILES: Oc1cc(O)c2c(c1)O[C@H](c1cc(O)c(O)c(O)c1)[C@@H](O)[C@@H]2c1c(O)cc(O)c2c1O[C@H](c1cc(O)c(O)c(O)c1)[C@@H](O)[C@@H]2c1c(O)cc(O)c2c1O[C@H](c1cc(O)c(O)c(O)c1)[C@@H](O)C2 [Substance Ic, GC-(4 alpha→8) GC-(4 a→8)-GC]
- % inhibition of the production of hydroxyl radicals ([1]; 10^-3 M): 74%
- % inhibition of the production of hydroxyl radicals ([1]; 10^-4 M): 39%
- % inhibition of the production of hydroxyl radicals ([1]; 10^-5 M): 20%
- Production of free radicals from KMB, effect in words ([1]; Table 22): significantly inhibits
- PG in the clusters over 12 days ([2]; 1% Ultroser G, 1 μg/ml): 886 ± 114 ng/μg DNA
- PG in the clusters over 12 days ([2]; 1% Ultroser G, 10 μg/ml): 1046 ± 74 ng/μg DNA
- PG in the clusters over 12 days ([2]; 1% Ultroser G, 100 μg/ml): 1184 ± 33 ng/μg DNA
- PGs released in the culture medium, effect in words ([2]; 1% Ultroser G, 1 μg/ml): significant effect
- PGs released in the culture medium ([2]; 1% Ultroser G, culture time 0-4 days, 1 μg/ml): 15.9 ± 1.15 μg/μg DNA/96 h
- PGs released in the culture medium ([2]; 1% Ultroser G, culture time 0-4 days, 10 μg/ml): 19.1 ± 1.2 μg/μg DNA/96 h
- PGs released in the culture medium ([2]; 1% Ultroser G, culture time 0-4 days, 100 μg/ml): 21.1 ± 1.0 μg/μg DNA/96 h
- PGs released in the culture medium ([2]; 1% Ultroser G, culture time 4-8 days, 1 μg/ml): 3.7 ± 0.15 μg/μg DNA/96 h
- PGs released in the culture medium ([2]; 1% Ultroser G, culture time 4-8 days, 10 μg/ml): 4.4 ± 0.52 μg/μg DNA/96 h
- PGs released in the culture medium ([2]; 1% Ultroser G, culture time 4-8 days, 100 μg/ml): 4.9 ± 0.45 μg/μg DNA/96 h
- PGs released in the culture medium ([2]; 1% Ultroser G, culture time 8-12 days, 1 μg/ml): 1.32 ± 0.7 μg/μg DNA/96 h
- PGs released in the culture medium ([2]; 1% Ultroser G, culture time 8-12 days, 10 μg/ml): 1.53 ± 0.15 μg/μg DNA/96 h
- PGs released in the culture medium ([2]; 1% Ultroser G, culture time 8-12 days, 100 μg/ml): 1.75 ± 0.05 μg/μg DNA/96 h
- Proteoglycans released during the 12 days of culture, Abs ([2]; 1% Ultroser G, cumulative, 1 μg/ml): 20.9 μg/μg DNA/12 days
- Proteoglycans released during the 12 days of culture, Abs ([2]; 1% Ultroser G, cumulative, 10 μg/ml): 25 μg/μg DNA/12 days
- Proteoglycans released during the 12 days of culture, Abs ([2]; 1% Ultroser G, cumulative, 100 μg/ml): 27.8 μg/μg DNA/12 days
- Concentrations of PG in the clusters, effect in words ([2]; 1% Ultroser G, three concentrations studied): significantly stimulated and in a dose-dependent way
- activity at 1 µg/mL ([2]; Homo sapiens, Chondrocyte, 288 h, 1% Ultroser G, cumulative, 1 μg/ml, control = 100, read-out: Proteoglycans released during the 12 days of culture, %): 127%
- activity at 10 µg/mL ([2]; Homo sapiens, Chondrocyte, 288 h, 1% Ultroser G, cumulative, 10 μg/ml, control = 100, read-out: Proteoglycans released during the 12 days of culture, %): 150%
- activity at 100 µg/mL ([2]; Homo sapiens, Chondrocyte, 288 h, 1% Ultroser G, cumulative, 100 μg/ml, control = 100, read-out: Proteoglycans released during the 12 days of culture, %): 170%
- activity at 10 µg/mL ([2]; Homo sapiens, Chondrocyte, foetal calf serum, Table 14, 0-4 days, 10 μg/ml, control = 100%, read-out: PG in the culture medium, % of control): 120%
- activity at 100 µg/mL ([2]; Homo sapiens, Chondrocyte, foetal calf serum, Table 14, 0-4 days, 100 μg/ml, control = 100%, read-out: PG in the culture medium, % of control): 160%
- activity at 10 µg/mL ([2]; Homo sapiens, Chondrocyte, foetal calf serum, Table 14, 4-8 days, 10 μg/ml, control = 100%, read-out: PG in the culture medium, % of control): 118%
- activity at 100 µg/mL ([2]; Homo sapiens, Chondrocyte, foetal calf serum, Table 14, 4-8 days, 100 μg/ml, control = 100%, read-out: PG in the culture medium, % of control): 121%
- activity at 10 µg/mL ([2]; Homo sapiens, Chondrocyte, foetal calf serum, Table 15, 0-4 days, 10 μg/ml, control = 100%, read-out: PG in the culture medium, % of control): 132%
- activity at 100 µg/mL ([2]; Homo sapiens, Chondrocyte, foetal calf serum, Table 15, 0-4 days, 100 μg/ml, control = 100%, read-out: PG in the culture medium, % of control): 140%
- activity at 10 µg/mL ([2]; Homo sapiens, Chondrocyte, foetal calf serum, Table 15, 4-8 days, 10 μg/ml, control = 100%, read-out: PG in the culture medium, % of control): 117%
- activity at 100 µg/mL ([2]; Homo sapiens, Chondrocyte, foetal calf serum, Table 15, 4-8 days, 100 μg/ml, control = 100%, read-out: PG in the culture medium, % of control): 138%
- activity at 10 µg/mL ([2]; Homo sapiens, Chondrocyte, foetal calf serum, Table 16, 0-8 days, 10 μg/ml, control = 100%, read-out: PG in the clusters over 8 days, % of control): 117%
- activity at 100 µg/mL ([2]; Homo sapiens, Chondrocyte, foetal calf serum, Table 16, 0-8 days, 100 μg/ml, control = 100%, read-out: PG in the clusters over 8 days, % of control): 132%
- activity at 10 µg/mL ([2]; Homo sapiens, Chondrocyte, foetal calf serum, Table 17, 0-8 days, 10 μg/ml, control = 100%, read-out: PG in the clusters over 8 days, % of control): 125%
- activity at 100 µg/mL ([2]; Homo sapiens, Chondrocyte, foetal calf serum, Table 17, 0-8 days, 100 μg/ml, control = 100%, read-out: PG in the clusters over 8 days, % of control): 139%
- PGs in the clusters, effect in words ([2]; foetal calf serum, 10 and 100 μg/ml): significantly increased
- PG in the culture medium ([2]; foetal calf serum, Table 14, 0-4 days, 10 μg/ml): 7.8 ± 1.51 μg/μg DNA - 96 H
- PG in the culture medium ([2]; foetal calf serum, Table 14, 0-4 days, 100 μg/ml): 10.4 ± 1.19 μg/μg DNA - 96 H
- PG in the culture medium ([2]; foetal calf serum, Table 14, 4-8 days, 10 μg/ml): 2.34 ± 0.08 μg/μg DNA - 96 H
- PG in the culture medium ([2]; foetal calf serum, Table 14, 4-8 days, 100 μg/ml): 2.40 ± 0.35 μg/μg DNA - 96 H
- PG in the culture medium ([2]; foetal calf serum, Table 15, 0-4 days, 10 μg/ml): 7.0 ± 1.19 μg/μg DNA - 96 H
- PG in the culture medium ([2]; foetal calf serum, Table 15, 0-4 days, 100 μg/ml): 7.5 ± 0.96 μg/μg DNA - 96 H
- PG in the culture medium ([2]; foetal calf serum, Table 15, 4-8 days, 10 μg/ml): 2.0 ± 0.17 μg/μg DNA - 96 H
- PG in the culture medium ([2]; foetal calf serum, Table 15, 4-8 days, 100 μg/ml): 2.4 ± 0.25 μg/μg DNA - 96 H
- PG in the clusters over 8 days ([2]; foetal calf serum, Table 16, 0-8 days, 10 μg/ml): 915 ± 75 ng/μg DNA
- PG in the clusters over 8 days ([2]; foetal calf serum, Table 16, 0-8 days, 100 μg/ml): 1035 ± 121 ng/μg DNA
- PG in the clusters over 8 days ([2]; foetal calf serum, Table 17, 0-8 days, 10 μg/ml): 718.2 ± 62.61 ng/μg DNA
- PG in the clusters over 8 days ([2]; foetal calf serum, Table 17, 0-8 days, 100 μg/ml): 799.5 ± 85.9 ng/μg DNA
